The results in this text go back to BindingDB's records for doi:10.1021/jm950507y (Glaxo Wellcome Research Institute, 1996).

The assay can be described thus: Average concentration of compound to cause 50% inhibition of topoisomerase-1 isolated from calf thymus.

As to `CC[C@@]1(O)C(=O)OCc2c1cc1n(c2=O)Cc2c-1nc1cc3c(cc1c2C[n+]1ccccc1)OCCO3` [8-ethyl-8-hydroxy-15-(1-pyridiniumylmethyl)-(8S)-2,3,8,9,12,14-hexahydro-11H-[1,4]dioxino[3,2-g]pyrano[3',4':6,7]indolizino[1,2-b]quinoline-9,12-dione], half-maximal inhibition (IC50) required 0.19 µM.

For the molecule `CC[C@@]1(O)C(=O)OCc2c1cc1n(c2=O)Cc2c-1nc1cc3c(cc1c2C[n+]1ccncc1)OCCO3` [8-ethyl-8-hydroxy-15-pyrazin-1-ium-1-ylmethyl-(8S)-2,3,8,9,12,14-hexahydro-11H-[1,4]dioxino[3,2-g]pyrano[3',4':6,7]indolizino[1,2-b]quinoline-9,12-dione], 0.18 µM corresponded to half-maximal inhibition (IC50).
